# Data from patent US20250082648A1, “COMPOSITIONS AND METHODS FOR ENHANCING KRAS INHIBITOR OR SHP2 INHIBITOR EFFICACY” (New York University, priority 2023, published 2025).
# Tested on: H2122 cells
# Experiment: CRISPR/Cas9 synthetic lethal screen with TNO155 alone
# Assay type: cell-based, human
# Conditions: for neg|score / pos|lfc: H2122; for neg|lfc: H2122 cells
structure (smiles),measurement,setting,value
C[C@@H]1OCC2(CCN(c3cnc(Sc4ccnc(N)c4Cl)c(N)n3)CC2)[C@@H]1N [TNO155],neg|score,PSMB4 knockout,0.000768
same,neg|lfc,QARS knockout,−1.1752
same,neg|score,RABGGTA knockout,0.0007119
same,neg|lfc,RABIF knockout,−1.3292
same,neg|lfc,RANBP1 knockout,−0.7938
same,neg|lfc,RBM10 knockout,−1.4299
same,neg|lfc,RBM48 knockout,−1.4768
same,neg|score,RBX1 knockout,0.0008383
same,neg|score,RFC2 knockout,0.0008264
same,neg|score,RNASEH1 knockout,0.000903
same,neg|lfc,RNF20 knockout,−0.9142
same,neg|score,RNF168 knockout,0.0008246
same,neg|score,RNPS1 knockout,0.0009345
same,neg|score,RPF2 knockout,0.0009481
same,neg|lfc,RPL7 knockout,−1.3947
same,neg|lfc,RPL18A knockout,−1.5316
same,neg|lfc,RPL35 knockout,−0.8092
same,neg|lfc,RPP30 knockout,−1.2535
same,neg|score,RPS2 knockout,0.0008275
same,neg|lfc,RPS8 knockout,−2.8705
same,neg|lfc,RRM1 knockout,−1.5038
same,neg|score,SASS6 knockout,0.0008932
same,neg|lfc,SKA2 knockout,−1.5851
same,neg|lfc,SLC39A14 knockout,−0.9135
same,neg|score,SMARCB1 knockout,0.0008764
same,neg|score,SOD1 knockout,0.0007147
same,neg|lfc,SRPRB knockout,−0.9129
same,neg|score,SUPT4H1 knockout,0.0007007
same,neg|lfc,SUZ12 knockout,−0.9357
same,neg|lfc,TARDBP knockout,−1.4541
same,neg|lfc,TBCA knockout,−1.4702
same,neg|lfc,TBP knockout,−1.6473
same,neg|lfc,TFB1M knockout,−0.9751
same,neg|score,TFDP1 knockout,0.0007958
same,neg|score,TIMM13 knockout,0.0007917
same,neg|score,TMEM130 knockout,0.0009518
same,neg|score,TNPO3 knockout,0.0009376
same,neg|score,TRIT1 knockout,0.0007446
same,neg|lfc,TSR1 knockout,−1.335
same,neg|score,TTC27 knockout,0.0008097
same,neg|score,TTI1 knockout,0.0008319
same,neg|score,TUBE1 knockout,0.0008874
same,neg|score,TUT1 knockout,0.0008619
same,neg|lfc,TXNL4A knockout,−1.8929
same,neg|score,TYMS knockout,0.0007567
same,neg|lfc,UBC knockout,−1.0724
same,neg|score,UBE2I knockout,0.0008281
same,neg|lfc,UBR4 knockout,−1.0947
same,neg|lfc,UBR5 knockout,−1.3884
same,neg|score,UBTF knockout,0.0007853
same,neg|lfc,UQCRC2 knockout,−1.0409
same,neg|lfc,UTP6 knockout,−2.6455
same,neg|score,UTP20 knockout,0.0007152
same,neg|score,VMA21 knockout,0.000773
same,neg|lfc,VPS18 knockout,−1.3116
same,neg|lfc,VPS53 knockout,−0.6999
same,neg|lfc,VPS72 knockout,−0.5497
same,neg|score,WDHD1 knockout,0.0009781
same,neg|score,WDR3 knockout,0.0009589
same,neg|score,WDR18 knockout,0.0007708
same,neg|lfc,WNK1 knockout,−1.0645
same,neg|score,WRAP53 knockout,0.0007984
same,neg|score,XPR1 knockout,0.000881
same,neg|lfc,XRCC5 knockout,−1.6679
same,neg|score,ZBTB11 knockout,0.0007214
same,neg|lfc,ZCCHC9 knockout,−1.957
same,neg|score,ZNF131 knockout,0.0008989
same,neg|lfc,ZNRD1 knockout,−1.5763
same,pos|lfc,gene ACTB,−1.1591
same,pos|lfc,gene ALG3,−0.5782
same,pos|lfc,gene ANAPC15,−1.2923
same,pos|lfc,gene AP2S1,−1.3206
same,pos|lfc,gene ARID4B,−0.9143
same,pos|lfc,gene BRCA1,−0.6966
same,pos|lfc,gene BUB1B,−0.8094
same,pos|lfc,gene C1D,−1.3624
same,pos|lfc,gene C16orf72,−2.2251
same,pos|lfc,gene CABIN1,−0.7818
same,pos|lfc,gene COPS6,−1.1267
same,pos|lfc,gene CS,−1.0352
same,pos|lfc,gene DARS2,−1.095
same,pos|lfc,gene DCLRE1B,−0.6801
same,pos|lfc,gene DDX49,−2.1703
same,pos|lfc,gene DYNC1H1,−1.3605
same,pos|lfc,gene DYNLRB1,−1.1311
same,pos|lfc,gene EIF2S1,−1.3093
same,pos|lfc,gene EIF2S2,−1.5347
same,pos|lfc,gene EIF5AL1,−0.8423
same,pos|lfc,gene EIF5B,−1.1819
same,pos|lfc,gene FANCA,−0.6873
same,pos|lfc,gene FANCG,−0.7949
same,pos|lfc,gene FNTB,−0.9877
same,pos|lfc,gene GCN1L1,−0.5542
same,pos|lfc,gene GRWD1,−0.9019
same,pos|lfc,gene GTPBP8,−1.0746
same,pos|lfc,gene HNRNPL,−1.1529
same,pos|lfc,gene HNRNPR,−0.5338
same,pos|lfc,gene KIAA1429,−1.1326
same,pos|lfc,gene LIMS1,−0.8407
same,pos|lfc,gene MMGT1,−0.748
same,pos|lfc,gene MRPL54,−0.8393
same,pos|lfc,gene NDUFB2,−0.8331
same,pos|lfc,gene NDUFC1,−0.9001
same,pos|lfc,gene NOP16,−1.0035
same,pos|lfc,gene PDCD7,−0.9939
same,pos|lfc,gene PDE12,−0.8248
same,pos|lfc,gene PEAR1,−0.6471
same,pos|lfc,gene POLD3,−1.3598
same,pos|lfc,gene POLR1C,−0.9691
same,pos|lfc,gene POLR2F,−1.9506
same,pos|lfc,gene PPHLN1,−0.829
same,pos|lfc,gene PPOX,−0.7508
same,pos|lfc,gene PWP2,−1.0599
same,pos|lfc,gene RIMBP2,−0.4894
same,pos|lfc,gene RMND1,−0.9991
same,pos|lfc,gene RPL3,−1.3237
same,pos|lfc,gene RPS19,−2.0213
same,pos|lfc,gene SEZ6,−0.6228
same,pos|lfc,gene SLC2A1,−0.9368
same,pos|lfc,gene SMC3,−1.7209
same,pos|lfc,gene SMC6,−1.1456
same,pos|lfc,gene SMG5,−1.2307
same,pos|lfc,gene SNRNP40,−1.1024
same,pos|lfc,gene TEX10,−1.3169
same,pos|lfc,gene TIFAB,−0.6891
same,pos|lfc,gene TOMM22,−0.8272
same,pos|lfc,gene TRAPPC4,−1.0187
same,pos|lfc,gene TTI2,−0.8554
same,pos|lfc,gene USP10,−0.902
same,pos|lfc,gene WDR12,−1.1622
same,pos|lfc,gene WDR92,−1.2556
same,pos|lfc,gene ZNHIT6,−1.4893
